Reference: patent US9247742B2 (priority 2012, dated 2016)
Like-named read-outs stand apart in the source and are kept apart here.

How the values were obtained:
[1] = system: Magnaporthe oryzae; format: in vivo; conditions: 1-day curative/protective; for B % DC: component B alone; for A % DC: component A (777) alone
[2] = system: Magnaporthe oryzae; format: in vivo; conditions: 1-day protective; for B % DC: component B alone; for A % DC: component A (777) alone

SMILES: C[C@H]1O[C@H](O[C@H]2[C@H](O)[C@@H](O)[C@@H](O)[C@H](O)[C@@H]2O)[C@@H](N)C[C@@H]1NC(=N)C(=O)O [Kasugamycin, 3-O-[2-amino-4-[(carboxylminomethyl)amino]-2,3,4,6-tetradeoxy-α-D-arabino-hexopyranosyl]-D-chiro-inositol]
- B % DC ([1]; Rate B 1.56 ai/ppm): 69%
- B % DC ([1]; Rate B 6.25 ai/ppm): 68%
- B % DC ([1]; Rate B 25 ai/ppm): 74%

SMILES: CO/C=C(/C(=O)OC)c1ccccc1Oc1cc(Oc2ccccc2C#N)ncn1 [Azoxystrobin, methyl (αE)-2-[[6-(2-cyanophenoxy)-4-pyrimidinyl]oxy]-α-(methoxymethylene)benzeneacetate]
- B % DC ([2]; Rate B 0.025 ai ppm): 9%
- B % DC ([2]; Rate B 0.1 ai ppm): 19%
- B % DC ([2]; Rate B 0.4 ai ppm): 30%
- B % DC ([2]; Rate B 1.56 ai ppm): 0%

SMILES: O=C(Nc1ccccc1-c1ccc(Cl)cc1)c1cccnc1Cl [Boscalid, 2-chloro-N-(4′-chloro[1,1′-biphenyl]-2-yl)-3-pyridinecarboxamide]
- B % DC ([1]; Rate B 400 ai/ppm): 69%

SMILES: C=CCOC1=NS(=O)(=O)c2ccccc21 [Probenazole, 3-(2-propenyloxy)-1,2-benzisothiazole 1,1-dioxide]
- B % DC ([1]; Rate B 3.12 ai/ppm): 69%
- B % DC ([1]; Rate B 12.5 ai/ppm): 78%

SMILES: Cc1cccc2sc3nncn3c12 [Tricyclazole, 5-methyl-1,2,4-triazolo[3,4-b]benzothiazole]
- B % DC ([2]; Rate B 0.025 ai ppm): 0%
- B % DC ([2]; Rate B 0.1 ai ppm): 0%
- B % DC ([2]; Rate B 0.4 ai ppm): 23%
- B % DC ([1]; Rate B 0.1 ai/ppm): 71%

SMILES: COc1ccnc(C(=O)N[C@H]2COC(=O)[C@H](Cc3ccccc3)[C@@H](OC(=O)C(C)C)[C@H](C)OC2=O)c1OCOC(=O)C(C)C [compound 777]
- A % DC ([2]; Rate A 0.025 ai ppm): 0%
- A % DC ([2]; Rate A 0.1 ai ppm): 21%
- A % DC ([2]; Rate A 0.25 ai ppm): 0%
- A % DC ([2]; Rate A 0.4 ai ppm): 61%
- A % DC ([1]; Rate A 0.1 ai/ppm): 28%
- A % DC ([1]; Rate A 0.4 ai/ppm): 50%
- A % DC ([1]; Rate A 1.56 ai/ppm): 67%
- A % DC ([1]; Rate A 6.25 ai/ppm): 81%

SMILES: CCC1(C(=O)NC(C)c2ccc(Cl)cc2)C(C)C1(Cl)Cl (stereo not drawn) [Carpropamid, 2,2-dichloro-N-[1-(4-chlorophenyl)ethyl]-1-ethyl-3-methylcyclopropanecarboxamide]
- B % DC ([2]; Rate B 0.1 ai ppm): 2%
- B % DC ([2]; Rate B 0.4 ai ppm): 23%
